Entries after “also recorded” stand apart in the source; their conditions may differ.
Legend:
MMP activities = assay: Fluorescent substrate assay (FSA) of MMP activity in HDMEC conditioned media; type: biochemical, human; settings: concentrated conditioned media from HDMEC cultures +/- PMA; Knight substrate
Procedure: Replicate hTERT(+)HDMECs (PD30, 60, 90) and primary controls (PD5, PD25) are seeded at equal densities, grown to confluence and switched to EBM media (Clonetics, San Diego, Calif.) containing growth factors, but no serum, for 72 hrs. Media is collected and total protein measured (Pierce, Rockford, Ill.). […] In addition, conditioned media are analyzed by a fluorescent substrate assay (FSA).
The FSA is an assay system for MMP activities based on recently-developed fluorogenic substrates that utilize 7-methoxycoumarin (MOC)-labeled MMP-specific small peptides (“Knight” substrate; Knight CG. Fluorimetric Assays of Proteolytic Enzymes. Met Enzymol 1995, 248:18-34). Release of MOC from the 2,4-dinitrophenyl-quenched peptide by active MMPs results in proportional increases in fluorescence with time. Activities of recombinant MMP-2 and MMP-9 using the Knight substrate were readily detectable and yielded linear initial reaction rates over 10 minutes. Calculated initial rates of hydrolysis of the Knight substrate (4 uM) by MMP-2 (1.2 nM), MMP-9 (1.2 nM), and MMP-2 (0.6 uM) plus MMP-9 (0.6 uM) were 571.1 units/min, 208.2 units/min, and 242 units/min, respectively. […]

[1] = tested on: GNMEC1 (eGFP-labeled hTERT(+)HDMEC); assay: In vitro angiogenic web formation on Matrigel; type: cell-based, human; settings: GNMEC1 pretreated with COX antagonist, then plated on Matrigel; FIG. 17
Procedure: Tubule formation on Matrigel. Matrigel (Collaborative Biomedical Products) was placed on ice and allowed to thaw overnight in a darkened cold room or refrigerator. Three hundred fifty microliters of the Matrigel was layered onto a pre-chilled well of a 6-well plate and then placed in an incubator at 37° C. for one half hour for the Matrigel to solidify. About 350,000 cells in M199/15% FBS/10 U/ml heparin/16 ig/ml ECGF were then seeded onto the matrix and allowed to incubate at 37° C., 5% CO2 environment. […] To show the utility of this in vitro system, we pretreated GNMEC1 with two different cyclo-oxygenase (COX) antagonists which are known to block angiogenesis (Jones et al. 1999 Nature Medicine 5:12;1418-23) and then plated the cells on Matrigel. […] The “tubulogenic process” can be followed and quantified utilizing cell lines such as GNMEC1 and digitally-converted fluorescence microscopic images of replicate cultures. Commercially available programs in current use with other cellular applications which maybe used to perform this process include MetaMorph® (Universal Imaging Corporation®, West Chester, Pa.) and the high-throughput imaging systems of Cellomics, Inc. (Pittsburgh, Pa.).

[2] = tested on: human microvessel formation by GNMEC1; assay: In vivo human microvascular remodeling assay, GNMEC1 in Matrigel implants in SCID mice; set-up: species or system human cells in SCID mice; settings: agents mixed with GNMEC1 in Matrigel before implantation in SCID mice; FIG. 24-27; preliminary studies
Text: (§1) SCID mice were implanted with Matrigel mixtures containing either b-FGF, primary HDMEC (PD1O) or hTERT(+)HDMEC via subcutaneous injection on ventral thoracic surfaces. Implants were harvested at 2 weeks, sectioned and stained with H&E and anti-human basement membrane Type 4 collagen. […] The presence of red blood cells within these human vessels indicates host vasculature has anastamosed with the human vessels creating murine-human chimeric microvasculature.
All agents were incorporated into Matrigel by mixing cells and agents together before implantation. The effect of continuous exposure at different concentrations was not performed but would be likely to greatly accentuate the results shown in these preliminary studies.

[3] = tested on: primary normal human keratinocyte (NHK) cultures; assay: Fluorescent substrate assay (FSA) of net MMP activity in keratinocyte conditioned media; type: cell-based; settings: conditioned media of PMA-treated NHK, only after APMA activation
Text: The FSA is an assay system for MMP activities based on recently-developed fluorogenic substrates that utilize 7-methoxycoumarin (MOC)-labeled MMP-specific small peptides (“Knight” substrate; Knight CG. Fluorimetric Assays of Proteolytic Enzymes. Met Enzymol 1995, 248:18-34). Release of MOC from the 2,4-dinitrophenyl-quenched peptide by active MMPs results in proportional increases in fluorescence with time. Activities of recombinant MMP-2 and MMP-9 using the Knight substrate were readily detectable and yielded linear initial reaction rates over 10 minutes. Calculated initial rates of hydrolysis of the Knight substrate (4 uM) by MMP-2 (1.2 nM), MMP-9 (1.2 nM), and MMP-2 (0.6 uM) plus MMP-9 (0.6 uM) were 571.1 units/min, 208.2 units/min, and 242 units/min, respectively.
Reverse zymography confirmed the presence of TIMPs.

[4] = tested on: host murine microvasculature; assay: Host vessel invasion of Matrigel implants in SCID mice; type: in vivo; settings: FGF-2 alone in Matrigel, no human EC
Text: as §1
This procedure is based on a modification of the mouse angiogenesis model previously described^41. Two-three week old male or female SCID mice (Taconic, Germantown, N.Y.) were used as hosts for all implants. […] Passaniti, A. et al. A simple, quantitative method for assessing angiogenesis and antiangiogenic agents using reconstituted basement membrane, heparin, and fibroblast growth factor. […]
(§2) Matrigel implants were removed at 1, 2, 4 and 6 wk following xenografting, fixed in 10% buffered formalin overnight, paraffin-embedded and sectioned. […] For micromorphometry, 5 separate 20×fields were randomly selected per tissue section and the number of annular structures were counted and averaged. […] Passaniti, A. et al. A simple, quantitative method for assessing angiogenesis and antiangiogenic agents using reconstituted basement membrane, heparin, and fibroblast growth factor. […]

[5] = tested on: HDMEC-GT derived microvessels; assay: SCID mice xenografting of HDMEC-GT in Matrigel, human vessel quantification; type: in vivo, human cells in SCID mice; settings: for human vessel density (human type IV collagen micromorphometry): two weeks after implantation, VEGF 2 μg/ml or FGF-2 150 ng/ml mixed with HDMEC-GT and Matrigel, only FGF-2 significant (p<0.01)
Procedure: This procedure is based on a modification of the mouse angiogenesis model previously described^41. Two-three week old male or female SCID mice (Taconic, Germantown, N.Y.) were used as hosts for all implants. Primary HDMEC and HDMEC-T were harvested, washed twice and re-suspended in serum-free EGM-2 basal medium at the concentration of 1×10^5/μl. Ten μl of cells were mixed with 0.5 ml of Matrigel on ice and the mixture was implanted in the ventral midline thoracic tissue of each mouse by subcutaneous injection using a #25 needle. Up to three separate injections could be performed on a single mouse. For some experiments, recombinant human VEGF165 (2 μg/ml) (R&D systems, Minneapolis, Minn.) or bovine FGF-2 (150 ng/ml) (R&D systems, Minneapolis, Minn.) were added to the mixture. When tumor cells (HT1080 and 293, ATCC) or primary human dermal fibroblasts 38 were injected, the procedure remained the same except basal DMEM medium replaced EGM-2. 41. Passaniti, A. et al. A simple, quantitative method for assessing angiogenesis and antiangiogenic agents using reconstituted basement membrane, heparin, and fibroblast growth factor. Lab. Invest. 67, 519-528 (1992).
as §2, with “sectioned. H&E stained thin sections were prepared at Pan-insular Histopathology laboratory (Los Gatos, Calif.). For immunofluorescence, thin sections were deparaffinized and antigens retrieved in 10 mM citric acid (pH 6.0) by microwaving sections for 2×7 min.” for “sectioned.”
For digital analysis of eGFP fluorescence images we used a novel algorithm (Moss Filter™) to determine the total amount of vascularization in each implant section. […]

primary HDMEC (control) = assay: Cell surface marker expression after TNF stimulation, primary HDMEC; type: cell-based, human; settings: TNFá stimulation for 16 hr
Procedure: (§3) The hTERT(+) HDMEC (TERT-1) line expressed uniformly high PCAM but relatively low levels of ICAM-1 (30%), VCAM-1 (1.3%) and CD34 (19.5%) at baseline. […] The latter result was consistent with experiments performed in support of the present invention that studied the same characteristics of primary HDMEC CD34 expression.
(§4) The antibodies used for flow Cytometry were anti-PECAM (Becton Dickinson), ICAM (Pharmingen), and Apo2.7 (Immunotech). […] For apo 2.7 assay, the cells were treated with TNFá+actinomycin D (AMD), LPS+cycloheximide (CHX), or UV light 16 hours prior to the experiments. One group of cells were serum starved for 40 hours. The cells are incubated with either PE conjugated primary antibody or un-conjugated primary antibody+PE conjugated secondary antibody at 37° C. The data was collected and analyzed with CellQuest (Becton Dickinson) or Coulter EPICS cell sorter.

hTERT(+) HDMEC (TERT-1) = assay: Cell surface marker expression after TNF stimulation, TERT-1; type: cell-based, human; settings: TNFá stimulation for 16 hr
Procedure: as §3, §4

## c1cnc2c(c1)ccc1cccnc12 [1, 10 phenanthraline, reference compound]
MMP activities
  blocking of MMP activities: completely blocked

## CS(=O)(=O)Nc1ccc([N+](=O)[O-])cc1OC1CCCCC1 [NS-398]
[1]
  angiogenic web blockade (dose-response curve): angiogenic web blockade

## CCCCCCCCCCCCCC(=O)O[C@@H]1[C@@H](C)[C@@]2(O)[C@@H](C=C(CO)C[C@]3(O)C(=O)C(C)=C[C@@H]23)[C@@H]2C(C)(C)[C@]12OC(C)=O [PMA, reference compound]
[2]
  effect on human microvessel formation in vivo (microvessel density, anti-human Type 4 collagen immuno-micromorphometry): angiostatic qualities
[3]
  net MMP activity: 10.1 units/min/ug total protein

## COc1ccc2c(c1)c(CC(=O)O)c(C)n2C(=O)c1ccc(Cl)cc1 [indomethacin]
[1]
  angiogenic web blockade (dose-response curve): angiogenic web blockade

## FGF-2: bovine FGF-2 (R&D systems), pro-angiogenic factor
[2]
  effect on human microvessel formation in vivo (microvessel density, anti-human Type 4 collagen immuno-micromorphometry): greatest stimulatory effect
[4]
  host vessel invasion of Matrigel implants: marked host vessel invasion; also recorded: stimulated
[4]; listed as b-FGF
  host vessel invasion of Matrigel implants: host microvasculature is readily apparent invading
[5]
  human vessel density (human type IV collagen micromorphometry): statistically increased human vessel density

## TNFá
Primary HDMEC (control); control primary cells
  ICAM-1 expression: > 99%
  VCAM-1 expression: 41%
Primary HDMEC (control); primary cells
  CD34 expression: 45%
hTERT(+) HDMEC (TERT-1); TERT-1 (baseline 1.3%)
  VCAM-1 expression: 41%
hTERT(+) HDMEC (TERT-1); TERT-1 (baseline 19.5%)
  CD34 expression: 1.6%
hTERT(+) HDMEC (TERT-1); TERT-1 (baseline 30%)
  ICAM-1 expression: > 99%

## VEGF
[5]; VEGF mixed with HDMEC-GT and Matrigel, two weeks, not statistically significant
  increased vessel density relative to controls: 20-30%
[5]
  human vessel density (human type IV collagen micromorphometry): increased vessel density

## rTIMP-1: Tissue Inhibitor of Matrix metalloProteinases 1
MMP activities
  blocking of MMP activities: partially blocked

From US20030175961A1, “Immortal micorvascular endothelial cells and uses thereof” (priority 2002, published 2003)
